What was measured:
[1] = system: peripheral blood mononuclear cells; assay: IFN-γ ELISPOT response of Type 1 diabetes patients to nested IA-2 peptides; type: cell-based, human; conditions: nested peptides compared with parental sequences; response positive when SI ≥3; FIG. 1
Description: Detection of interferon (IFN)-γ by CD4^+ T cells in response to peptide stimulation was carried out using an enzyme-linked immunospot (ELISPOT) assay that has significant discriminative ability for type 1 diabetes in blinded proficiency testing, as previously described (Arif, S. et al. J Clin Invest 2004; 113: 451-463 and Herold, K. C. et al. Diabetes 2009; 58: 2588-2595). Data are expressed as the mean number of spots per triplicate and compared with the mean spot number in the presence of diluent alone (stimulation index; SI). A response is considered positive when the SI is ≥3 using cut-offs determined using receiver-operator characteristic plots as previously described (Arif, S. et al. J Clin Invest 2004; 113: 451-463).
The results are shown for 3 parental sequences (cross-hatched), and these are compared with shorter nested sequence peptides. Responses represent IFN-γ production by peripheral blood mononuclear cells cultured with each peptide, as detected using an enzyme-linked immunospot assay.

proinsulin = assay: Serum proinsulin specific IgG after mono-/multi-PI treatment; type: in vivo, HLA-DR4-Tg mice; conditions: 4 weekly intradermal injections of individual peptide; FIG. 4E-F
Description: In brief, tolerance to proinsulin was breached in mice by subcutaneous immunisation with 100 μg proinsulin protein emulsified in CFA and treatment with intraperitoneal pertussis toxin immediately and 1 day after immunisation. Mice then received 4 weekly intradermal treatments of 10 μg control-PI or proinsulin mono/multi-PI (C13-32 (SEQ ID NO: 4); C19-A3 (SEQ ID NO: 5); C22-A5 (SEQ ID NO:6)), before subcutaneous immunisation with 100 μg proinsulin protein emulsified in IFA to boost the ongoing autoimmune response (A). Lymph nodes (LNs) were harvested 7 days later and LN cell suspensions were cultured with or without proinsulin protein or peptide (C13-32; C19-A3; C22-A5) for 48 hours in vitro. Proliferation of CD4^+ T cells and IFN-γ production were analysed by CFSE dilution at 96 hours (B) and ELISA at 48 hours (C) in response to in vitro stimulation with 50 μg/mL proinsulin protein and 10 μg/mL peptides (C13-32; C19-A3; C22-A5). Serum levels of proinsulin specific IgG1 were measured at day 42 (D). Percentages of proliferating CD3^+CD4^+CD25^highFoxP3^+ Tregs were measured by flow cytometry in LN cultures at day 42 (E). Data are representative of three independent experiments. *p<0.05, **p<0.01, ***p<0.001; Statistical significance was determined by one-way ANOVA or Student's t test. 15 mice per group in B and C; 5 mice per group D-F.
Tolerance to proinsulin was breached in mice by subcutaneous immunisation with 100 μg proinsulin protein emulsified in CFA and treatment with intraperitoneal pertussis toxin immediately and 1 day after immunisation. […] Proliferation and cytokine production were analysed by thymidine incorporation and ELISA and the mean±SEM proliferation in response to 50 μg/mL proinsulin (B) and IFN-γ production in response to 50 μg/mL proinsulin (C) or 10 μg/mL proinsulin peptides, in DLN cultures is shown. Percentage of proliferating CD3^+CD4^+CD25^highFoxP3^+ Tregs was measured by flow cytometry in LN cultures at day 42 (E). Serum levels of proinsulin specific IgG1 were measured at day 42 (F). […]

Substance | proportion of Type 1 diabetes patients responding (IFN-γ production) [1] | therapeutic potency of mono-PI in contrast to multi-PI (proinsulin)
855-67: fragment of IA-2, comprising residues 855-867 (YLKNVQTQETRTL; listed as Homo sapiens) [Group 855-67] | preferential sequences | 
C19-A3: fragment of PI, comprising residues C19-A3 (GSLQPLALEGSLQKRGIV; listed as Homo sapiens) [Group C19-A3] |  | lower levels of therapeutic potency
C13-32: fragment of PI, comprising residues C13-C32 (GGGPGAGSLQPLALEGSLQK; listed as Homo sapiens) [Group C13-32] |  | lower levels of therapeutic potency
C22-A5: fragment of PI, comprising residues C22-A5 (QPLALEGSLQKRGIVEQ; listed as Homo sapiens) [Group C22-A5] |  | lower levels of therapeutic potency
718-36: fragment of IA-2, comprising residues 718-736 (AYQAEPNTCATAQGEGNIK; listed as Homo sapiens) [Group 718-36] | preferential sequences | 

Reference: US11400131B2, “Multi-peptide composition” (King's College London, priority 2015, dated 2022)
